Usually IC50 stands for the concentration needed to halve the response being measured. Lower therefore signals greater potency.

These results are taken from US8283356B2, “2,4- Di(hetero)-arylamino-pyrimidine derivatives as ZAP-70 and/or SYK inhibitors” (Novartis AG, priority 2003, dated 2012).

The experiment concerns the target T1, ZAP-70 (Homo sapiens, UniProt P43403).
T1 construct: purchased Upstate Biotechnology, Lake Placid, N.Y
T1 sequence (P43403 1-619): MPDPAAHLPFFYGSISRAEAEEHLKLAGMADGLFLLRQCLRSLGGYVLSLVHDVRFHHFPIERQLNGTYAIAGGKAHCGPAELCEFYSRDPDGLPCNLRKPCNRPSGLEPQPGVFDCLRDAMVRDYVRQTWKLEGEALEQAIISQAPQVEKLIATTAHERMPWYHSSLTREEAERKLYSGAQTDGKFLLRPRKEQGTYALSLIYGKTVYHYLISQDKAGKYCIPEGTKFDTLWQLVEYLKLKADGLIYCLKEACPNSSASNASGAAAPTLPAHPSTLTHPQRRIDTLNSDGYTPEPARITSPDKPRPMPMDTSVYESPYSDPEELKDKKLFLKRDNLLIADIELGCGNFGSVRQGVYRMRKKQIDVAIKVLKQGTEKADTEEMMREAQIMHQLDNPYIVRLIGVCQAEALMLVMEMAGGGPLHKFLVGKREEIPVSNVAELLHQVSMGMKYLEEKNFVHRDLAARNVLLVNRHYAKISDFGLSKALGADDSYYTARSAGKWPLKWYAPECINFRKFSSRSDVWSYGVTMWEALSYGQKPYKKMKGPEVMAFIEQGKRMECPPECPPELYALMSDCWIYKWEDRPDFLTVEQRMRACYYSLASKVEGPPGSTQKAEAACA
Description: ZAP-70 kinase assay (time-resolved fluorescence resonance energy transfer). It counts as biochemical. The settings on record: 80 nM ZAP-70, 4 μM ATP, LAT-11 peptide substrate. As to the method: 1. ZAP-70 Cell-Free Kinase Assays
ZAP-70 and Lck (lymphoid T-cell protein tyrosine kinase) are commercially available from Upstate Biotechnology, Lake Placid, N.Y.
ZAP-70 Kinase assay: The activities of the compounds of invention are determined in a homogenous ZAP-70 kinase assay based on time-resolved fluorescence resonance energy transfer. Briefly, 80 nM ZAP-70 are incubated with 80 nM Lck and 4 μM ATP in ZAP-70 kinase buffer (20 mM Tris, pH 7.5, 10 μM Na3VO4, 1 mM DTT, 1 mM MnCl2, 0.01% bovine serum albumin, 0.05% Tween 20) for 1 hour at room temperature in a siliconized polypropylene tube. Then, the selective Lck inhibitor PP2 (4-amino-5-(4-chloro-phenyl)-7-(t-butyl)pyrazolo[3,4-d]pyrimidine; Alexis Biochemicals) is added (final concentration 1.2 μM) and incubated for further 10 min. Ten μl of this solution is mixed with the 10 μl biotinylated peptide LAT-11 (linker for activation of T cell prepared as disclosed in Example 1A of WO 02/12275, the contents of which, particularly with reference to Example 1A, is incorporated herein by reference; 1 μM) as substrate and 20 μl of serial dilutions of inhibitors and incubated for 4 hours at room temperature. The kinase reaction is terminated with 10 μl of a 10 mM EDTA solution in detection buffer (20 mM Tris, pH 7.5, 0.01% bovine serum albumin, 0.05% Tween 20). The detection phase is performed by addition of 50 μl europium (Eu)-labelled anti-phosphotyrosine antibody (e.g. Eu-PT66; final concentration 0.125 nM; Advant/Wallac) and 50 μl streptavidin-allophycocyanine (SA-APC; final concentration 40 nM) in detection buffer. After 1 hour incubation at room temperature fluorescence is measured, e.g., on the Victor2 Multilabel Counter (VVallac) at 665 nm. Background values (low control) are obtained in the absence of test samples and ATP and are subtracted from all values. Signals obtained in the absence of test samples are taken as 100% (high control). The inhibition obtained in the presence of test compounds is calculated as percent inhibition of the high control. The concentration of test compounds resulting in 50% inhibition (IC50) is determined from the dose-response curves.
Regarding `CN1CCN(CCOc2cccc(Nc3nccc(Nc4ccc5c(c4S(N)(=O)=O)OCCO5)n3)c2)CC1` [Example 11], the IC50 came to 16 nM.

The molecule `COCCNc1cc(Nc2nccc(Nc3ccc4c(c3S(N)(=O)=O)OCCO4)n2)ccc1C` [Example 57] came in with a 50% inhibitory concentration (IC50) of 13 nM. In the case of `CNc1cc(Nc2nccc(Nc3cccc(OC)c3S(N)(=O)=O)n2)ccc1C` [Example 139, 2-Methoxy-6-[2-(4-methyl-3-methyl-amino-phenylamino)-pyrimidin-4-ylamino]-benzenesulfonamide] it was 37 nM; in that of `CNc1cc(Nc2nccc(Nc3ccc4c(c3S(N)(=O)=O)OCCO4)n2)ccc1C` [Example 140, 6-[2-(4-Methyl-3-methylamino-phenylamino)-pyrimidin-4-ylamino]-2,3-dihydro-benzo[1,4]dioxine-5-sulfonic acid amide], 10 nM; in that of `COc1cccc(Nc2ccnc(Nc3ccc4c(c3)NCC4)n2)c1S(N)(=O)=O` [Example 141, 2-[2-(2,3-Dihydro-1H-indol-6-ylamino)-pyrimidin-4-ylamino]-6-methoxy-benzenesulfonamide], 183 nM. In the case of `NS(=O)(=O)c1c(Nc2ccnc(Nc3ccc4c(c3)NCC4)n2)ccc2c1OCCO2` [Example 144, 6-[2-(2,3-Dihydro-1H-indol-6-ylamino)-pyrimidin-4-ylamino]-2,3-dihydro-benzo[1,4]dioxine-5-sulfonic acid amide] it was 21 nM.
